Data as given in patent publication US12336991B2, “Factor XIIA inhibitors” (UNIVERSITY OF LEEDS, priority 2018, dated 2025).

Assays:
Format in all cases: biochemical
FXa = FXa (Homo sapiens, UniProt P00742); assay: Determination of selectivity: FXa inhibition, chromogenic substrate S2765 assay; conditions: fold selectivity for FXIIa over FXa
In short: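 Human FXa (5 nM) preincubated with compound (top 500 μM, 5% DMSO) 10 min at 37 °C in 50 mM Tris, 137 mM NaCl pH 7.4, then S2765 ([…]) added; A405 kinetics over 3 h at 37 °C. IC50 from initial rates, converted to Ki via Cheng-Prusoff.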

thrombin = biological target: T1, thrombin (Homo sapiens, UniProt P00734); assay: Determination of selectivity: thrombin inhibition, chromogenic substrate GPR assay; conditions: fold selectivity for FXIIa over thrombin
T1 construct: FXa (5 nM) and thrombin (5 nM)
In short: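 Thrombin (5 nM) preincubated with compound 10 min at 37 °C in 50 mM Tris, 137 mM NaCl, pH 7.4, 5% DMSO, then GPR substrate ([…]) added. Absorbance at 405 nm read kinetically for 3 h; IC50 from initial rates, converted to Ki via Ki=IC50/(1+[S]/Km).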

FXIIa = biological target: T2, FXIIa (Homo sapiens, UniProt P00748); assay: Determination of Factor XIIa inhibition, chromogenic substrate S-2302 assay; conditions: human FXIIa alpha
T2 sequence (P00748 373-615 limits assumed): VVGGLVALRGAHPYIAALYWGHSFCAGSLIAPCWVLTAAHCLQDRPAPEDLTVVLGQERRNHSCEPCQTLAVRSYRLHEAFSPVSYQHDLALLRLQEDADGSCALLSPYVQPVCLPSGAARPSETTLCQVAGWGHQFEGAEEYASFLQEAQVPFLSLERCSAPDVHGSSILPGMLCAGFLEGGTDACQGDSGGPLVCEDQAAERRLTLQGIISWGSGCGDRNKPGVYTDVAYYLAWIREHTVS
T2 sequence (P00748 20-372 partner limits assumed): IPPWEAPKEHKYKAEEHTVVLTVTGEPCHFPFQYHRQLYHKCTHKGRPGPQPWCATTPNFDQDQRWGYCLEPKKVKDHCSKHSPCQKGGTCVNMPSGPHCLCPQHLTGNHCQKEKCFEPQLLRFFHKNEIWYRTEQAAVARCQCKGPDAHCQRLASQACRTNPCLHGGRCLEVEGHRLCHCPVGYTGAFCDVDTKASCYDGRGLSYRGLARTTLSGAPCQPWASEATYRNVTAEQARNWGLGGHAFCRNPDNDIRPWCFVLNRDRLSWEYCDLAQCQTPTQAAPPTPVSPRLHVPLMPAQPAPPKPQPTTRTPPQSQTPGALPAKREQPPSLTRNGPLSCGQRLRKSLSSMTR
In short: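 FXIIa (10 nM) preincubated with compound 10 min at 37° C. in 50 mM Tris, 137 mM NaCl pH 7.4, 5% DMSO, top concentration 500 μM, then S-2302 added ([…]). Absorbance at 405 nm read kinetically for 3 h; IC50 from initial rates, converted to Ki by Cheng-Prusoff.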

Chain of FXa (P00742 235-488 limits assumed): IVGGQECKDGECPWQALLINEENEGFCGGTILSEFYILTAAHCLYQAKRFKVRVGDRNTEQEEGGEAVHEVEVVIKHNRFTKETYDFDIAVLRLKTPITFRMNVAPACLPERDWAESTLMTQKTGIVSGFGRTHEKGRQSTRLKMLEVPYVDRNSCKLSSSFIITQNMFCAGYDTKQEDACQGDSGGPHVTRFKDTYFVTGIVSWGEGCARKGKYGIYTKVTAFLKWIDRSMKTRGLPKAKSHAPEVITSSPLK
Chain of FXa (P00742 41-179 partner limits assumed): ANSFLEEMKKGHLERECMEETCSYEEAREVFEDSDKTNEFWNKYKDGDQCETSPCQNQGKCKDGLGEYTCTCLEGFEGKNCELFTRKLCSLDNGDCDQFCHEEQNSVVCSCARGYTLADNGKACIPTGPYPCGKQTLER

| SMILES | FXa (human)/FXIIa alpha (human) (FXa) | Thrombin (human)/FXIIa alpha (human) (thrombin) | Ki (FXIIa) |
| --- | --- | --- | --- |
| Cn1nnc2cc(CNC(=O)[C@@H]3C[C@H](NC4CCCCC4)CN3C(=O)[C@H](N)CCc3ccccc3)ccc21 [Example M05203] | ∘∘ | ++ (fold selectivity value of 10 to 100) | > 2000 nM |
| Cn1nnc2cc(CNC(=O)[C@@H]3CC(NCC4CCCCC4)CN3C(=O)[C@H](N)CCc3ccccc3)ccc21 (stereo partly drawn) [Example M05204] | ∘∘ | ++ (fold selectivity value of 10 to 100) | > 2000 nM |
| Cn1nnc2cc(CNC(=O)[C@@H]3C[C@H](NCCc4ccccc4)CN3C(=O)[C@H](N)CCc3ccccc3)ccc21 [Example M05205] | ∘∘ | ++ (fold selectivity value of 10 to 100) | > 2000 nM |
| Cn1nnc2cc(CNC(=O)[C@@H]3C[C@H](NCCCc4ccccc4)CN3C(=O)[C@H](N)CCc3ccccc3)ccc21 [Example M05206] | ∘∘ | ++ (fold selectivity value of 10 to 100) | > 2000 nM |
| COC(=O)N[C@H]1C[C@@H](C(=O)NCc2ccc3c(c2)nnn3C)N(C(=O)[C@H](N)CCc2ccccc2)C1 [Example M05207] | ∘∘ | ++ (fold selectivity value of 10 to 100) | > 2000 nM |
| CNC(=O)N[C@H]1C[C@@H](C(=O)NCc2ccc3c(c2)nnn3C)N(C(=O)[C@H](N)CCc2ccccc2)C1 [Example M05208] | ∘∘ | ++ (fold selectivity value of 10 to 100) | > 2000 nM |
| Cn1nnc2cc(CNC(=O)[C@@H]3C[C@H](Cc4cccc(Cl)c4)CN3C(=O)[C@H](N)CCC(=O)N3CCCC3)ccc21 [Example M05210, (2S,4S)-1-((R)-2-amino-5-oxo-5-pyrrolidin-1-yl-pentanoyl)-4-(3-chloro-benzyl)-pyrrolidine-2-carboxylic acid (1-methyl-1H-benzotriazol-5-ylmethyl)-amide] | ∘∘∘ | +++ (fold selectivity values greater than 100) | 200 to 2000 nM |
| Cn1nnc2cc(CNC(=O)[C@@H]3C[C@H](Cc4ccccc4)CN3C(=O)[C@H](N)CCC(=O)N3CCCC3)ccc21 [Example M05211, (2S,4S)-1-((R)-2-Amino-5-oxo-5-pyrrolidin-1-yl-pentanoyl)-4-benzyl-pyrrolidine-2-carboxylic acid (1-methyl-1H-benzotriazol-5-ylmethyl)-amide] | ∘∘∘ | +++ (fold selectivity values greater than 100) | 200 to 2000 nM |
| Cn1nnc2cc(CNC(=O)[C@@H]3C[C@H](NC(=O)Cc4ccccc4)CN3C(=O)[C@H](N)CCc3ccccc3)ccc21 [Example M05216] | ∘∘ | ++ (fold selectivity value of 10 to 100) | > 2000 nM |
| Cn1nnc2cc(CNC(=O)[C@@H]3C[C@@H](Cc4cccnc4)CN3C(=O)[C@H](N)CCC(=O)N3CCCC3)ccc21 [Example M05218] | ∘∘∘ | +++ (fold selectivity values greater than 100) | 200 to 2000 nM |
| CN(C)[C@H](CCC(=O)N1CCCC1)C(=O)N1C[C@H](Cc2cccnc2)C[C@H]1C(=O)NCc1ccc2c(c1)c(Cl)nn2C [Example M05219] | ∘∘∘ | +++ (fold selectivity values greater than 100) | < 200 nM |
| CN(C)[C@H](CCC(=O)N1CCCC1)C(=O)N1C[C@H](Cc2ccncc2)C[C@H]1C(=O)NCc1ccc2c(c1)nnn2C [Example M05220] | ∘∘∘ | +++ (fold selectivity values greater than 100) | 200 to 2000 nM |
| CN(C)[C@H](CCC(=O)N1CCCC1)C(=O)N1C[C@H](Cc2cccnc2)C[C@H]1C(=O)NCc1ccc2c(c1)nnn2C [Example M05222] | ∘∘∘ | +++ (fold selectivity values greater than 100) | 200 to 2000 nM |
